# Data from paper PMC10388362, “Fluorescent Ligands Enable Target Engagement Studies for the Intracellular Allosteric Binding Site of the Chemokine Receptor CXCR2” (Journal of Medicinal Chemistry, 2023).
# Legend:
# CCR7 = target: T1, CCR7 (Homo sapiens, UniProt P32248); assay: Membrane-based NanoBRET saturation assay, selectivity (CCR7_GSSG_Nluc membranes)
# T1 construct: host or cells: HEK293T; membrane preparation
# T1 sequence (P32248 25-378): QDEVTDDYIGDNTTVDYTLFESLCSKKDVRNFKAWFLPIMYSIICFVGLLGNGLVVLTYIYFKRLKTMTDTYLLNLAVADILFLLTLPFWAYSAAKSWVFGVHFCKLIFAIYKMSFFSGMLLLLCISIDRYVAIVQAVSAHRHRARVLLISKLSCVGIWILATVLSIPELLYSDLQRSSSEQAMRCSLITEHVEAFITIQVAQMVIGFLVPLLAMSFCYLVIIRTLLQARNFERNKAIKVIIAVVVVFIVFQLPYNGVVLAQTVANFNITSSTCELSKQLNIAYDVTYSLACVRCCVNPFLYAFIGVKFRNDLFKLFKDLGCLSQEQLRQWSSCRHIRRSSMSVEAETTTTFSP
# Protocol: For the establishment of our NanoBRET binding assay, we referred to a recently published protocol.[45] The fluorescent ligands (9a–c) were dissolved in DMSO (1 mM) and further diluted to varying concentrations in an assay buffer (50 mM Na2HPO4, 50 mM KH2PO4, pH 7.4, 1 mg/mL saponin, 5% FBS) and 5 μL of these dilutions were pipetted to a 384-well plate. To determine the total binding, 5 μL of the assay buffer was added to the corresponding wells, while 5 μL of a solution of 3 in the assay buffer (final assay concentration: 1 μM) was used to determine nonspecific binding. Then, 20 μL of the membrane preparations diluted in the assay buffer (2 μg total protein/well) were added and the plates were incubated for 90 min at 37 °C. Subsequently, 5 μL of a furimazine solution (Promega, Mannheim, Germany, final assay dilution: 1:5000) was added to each well (final assay volume: 35 μL) before measuring luminescence with a CLARIOstar microplate reader using 620/10 and 475/30 nm emission filters after 5 min of incubation in the dark. Bioluminescence resonance energy transfer (BRET) was determined as the ratio of acceptor fluorescence and donor luminescence. […] Specific binding signals were calculated as a difference of total and nonspecific binding. If required, netBRET values were calculated as the difference between total BRET values and the values obtained in the absence of a fluorescent ligand. […]
# CXCR2 = target: T2, CXCR2 (Homo sapiens, UniProt P25025); assay: Live cell NanoBRET saturation binding (HEK293T cells expressing CXCR2_Nluc)
# T2 construct: Promega pNLF1-C (Nluc) #CXCR20TN00; host or cells: HEK293T, transient transfection (PEI)
# T2 sequence (P25025 1-360): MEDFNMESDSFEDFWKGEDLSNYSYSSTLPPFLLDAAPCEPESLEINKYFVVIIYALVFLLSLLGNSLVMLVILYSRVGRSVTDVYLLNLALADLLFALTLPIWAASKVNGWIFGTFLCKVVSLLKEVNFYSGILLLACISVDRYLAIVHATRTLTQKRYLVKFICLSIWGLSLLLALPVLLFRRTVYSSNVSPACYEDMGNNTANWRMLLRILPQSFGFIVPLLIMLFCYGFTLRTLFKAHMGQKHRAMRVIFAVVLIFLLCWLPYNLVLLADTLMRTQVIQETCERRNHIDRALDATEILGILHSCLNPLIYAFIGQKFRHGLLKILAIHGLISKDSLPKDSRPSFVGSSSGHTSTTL
# Protocol: HEK293T cells were transfected with the plasmid (5.5 μg) for CXCR2_Nluc using polyethylenimine (PEI) as transfection reagent (PEI/DNA ratio 3:1). After 24 h at 37 °C and 5% CO2, the cells were detached with DMEM and transferred to a white F-bottom 384-well plate (10,000 cells/well), which was coated with 5 μL/well poly-D-lysine (0.1 mg/mL, dissolved in water), and incubated for further 24 h at 37 °C and 5% CO2. Subsequently, the cells were washed with phosphate-buffered saline (Gibco DPBS, with CaCl2 and MgCl2). The assay medium (Gibco DMEM/F12, 15 mM HEPES, no phenol red supplemented with 5% FBS) was added and the cells were incubated at 37 °C for 30 min. […]
# After 120 min of incubation at 37 °C, 5 μL of a furimazine solution (final assay dilution: 1:2500, diluted with assay medium) was added. Subsequent to a further incubation of 5 min in the dark at 37 °C, BRET ratios were measured with a CLARIOstar microplate reader using 620/10 and 475/30 nm emission filters. Total, nonspecific and specific binding, which was calculated as a difference of total and nonspecific binding, were analyzed using the algorithms for one-site saturation binding in PRISM9.5 (GraphPad). To determine the inhibition constants (Ki) of the potential competitors, data were normalized to total and nonspecific binding and analyzed using the one-site-fit Ki equation in PRISM9.5 (GraphPad).
smiles,measurement,setting,value
"Cc1ccc([C@H](Nc2c(Nc3cccc(C(=O)NCc4cn(CCOCCOCCOCCNC(=O)c5ccc(C(=O)[O-])c(-c6c7ccc(=[N+](C)C)cc-7oc7cc(N(C)C)ccc67)c5)nn4)c3O)c(=O)c2=O)C(C)(C)C)o1 [9a, (R)-4-((2-(2-(2-(2-(4-((3-((2-((2,2-Dimethyl-1-(5-methylfuran-2-yl)propyl)amino)-3,4-dioxocyclobut-1-en-1-yl)amino)-2-hydroxybenzamido)methyl)-1H-1,2,3-triazol-1-yl)ethoxy)ethoxy)ethoxy)ethyl)carbamoyl)-2-(6-(dimethylamino)-3-(dimethyliminio)-3H-xanthen-9-yl)benzoate]",binding to CCR7,CCR7,no significant binding
same,Kd,"CXCR2; live HEK293T cells transiently expressing CXCR2_Nluc, 37 °C, read-out: Kd (equilibrium saturation binding)",0.25 ± 0.01 nM
same,passage of the cell membrane,"CXCR2; live HEK293T cells, inferred from cellular binding",able to pass the cell membrane
